Data from patent publication US20210164992A1, “COMPOSITIONS AND METHODS RELATED TO INNATE RESPONSE TO DNA AND REGULATION OF INTERFERON-BETA” (priority 2018, published 2021).

Experiments:
IFNB1 mRNA [1] = assay: IFNB1 mRNA abundance in response to dsDNA in siRNA-treated NHDFs with or without JAK inhibitor (qRT-PCR); assay type: cell-based, human; settings: NHDFs transfected with dsDNA, JAK inhibitor (Pyridone 6) vs DMSO (FIG. 5A)
HCMV = HCMV reproduction and spread in NHDFs, virus titer (TCID/50); assay type: cell-based, human cytomegalovirus; settings: 1 μM JAK inhibitor (Pyridone 6) vs DMSO
cellular m^6A effectors = assay: HCMV-induced accumulation of cellular m^6A effector proteins in NHDFs (immunoblotting); assay type: cell-based, human; settings: NHDFs infected with HCMV (MOI=3); PP242 25 μM vs DMSO (FIG. 1E)
IFNB1 mRNA [2] = assay: dsDNA-induced IFNB1 mRNA accumulation in primary human fibroblasts (RT-PCR), Rhein treatment; assay type: cell-based; settings: primary human fibroblasts transfected with dsDNA, measured after 9 h; Rhein added 24 h prior to or at time of transfection; vs DMSO vehicle (FIG. 16)

## CC(C)(C)c1nc2c3cc[nH]c(=O)c3c3cc(F)ccc3c2[nH]1 [JAK inhibitor, Pyridone 6]
IFNB1 mRNA [1]
  kinetics of IFNB1 mRNA accumulation: faster
HCMV; MOI=0.05, 7 d (FIG. 2D)
  increase of HCMV reproduction in control siRNA-treated cultures: less than 10 fold
HCMV; MOI=0.05, 7 d, compared to control siRNA levels (FIG. 2D)
  HCMV reproduction in METTL14 siRNA-treated cultures: to a large extent restored HCMV reproduction

## CC(C)n1nc(-c2cc3cc(O)ccc3[nH]2)c2c(N)ncnc21 [PP242]
Cellular m^6A effectors
  HCMV-induced increase in cellular m^6A effectors: repressed

## O=C(O)c1cc(O)c2c(c1)C(=O)c1cccc(O)c1C2=O [Rhein]
IFNB1 mRNA [2]
  IFNB1 mRNA production: dose-dependent inhibition of IFNB1 mRNA production
